Results reported in ChEMBL document CHEMBL1201862, “PubChem BioAssay data set” (2004).
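Five compound concentrations were applied to cells in 96-well plates for 48 hours; endpoints were derived by simple linear interpolation of the resulting dose-response curve. GI50 marks 50% less growth.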 Calls of active or inactive are those of the source. No stated cut-off is given here; in the data, active = GI50 up to about 1.1 µM and inactive = higher.

Assays:
Experiment in all cases: inhibition of tumour cell growth, NCI panel, 48 h
EKVX = system: EKVX
LOX IMVI = system: LOX IMVI
CCRF-CEM = system: CCRF-CEM
RPMI-8226 = system: RPMI-8226
MDA-MB-231 = system: MDA-MB-231
UACC-257 = system: UACC-257
OVCAR-4 = system: OVCAR-4
CAKI-1 = system: CAKI-1
SNB-75 = system: SNB-75
OVCAR-5 = system: OVCAR-5
A498 = system: A498
IGROV-1 = system: IGROV-1
NCI-H226 = system: NCI-H226
ACHN = system: ACHN
786-0 = system: 786-0
NCI-H460 = system: NCI-H460
RXF 393 = system: RXF 393
SK-MEL-5 = system: SK-MEL-5
M14 = system: M14
Malme-3M = system: Malme-3M
HCT-116 = system: HCT-116
COLO 205 = system: COLO 205
SR = system: SR
PC-3 = system: PC-3
UACC-62 = system: UACC-62
T47D = system: T47D
SK-MEL-28 = system: SK-MEL-28
SW-620 = system: SW-620
SF-268 = system: SF-268
HOP-92 = system: HOP-92
MDA-MB-435 = system: MDA-MB-435
MDA-N = system: MDA-N
NCI/ADR-RES = system: NCI/ADR-RES
SN12C = system: SN12C
HCC 2998 = system: HCC 2998
BT-549 = system: BT-549
TK-10 = system: TK-10
HOP-62 = system: HOP-62
UO-31 = system: UO-31
MOLT-4 = system: MOLT-4
SK-MEL-2 = system: SK-MEL-2
SK-OV-3 = system: SK-OV-3
NCI-H522 = system: NCI-H522
HT-29 = system: HT-29
SF-295 = system: SF-295
A549 = system: A549
SNB-19 = system: SNB-19
U-251 = system: U-251
OVCAR-8 = system: OVCAR-8
Hs-578T = system: Hs-578T
HL-60 = system: HL-60
K562 = system: K562
HCT-15 = system: HCT-15
NCI-H23 = system: NCI-H23
OVCAR-3 = system: OVCAR-3
MCF7 = system: MCF7
DU-145 = system: DU-145
KM12 = system: KM12
SF-539 = system: SF-539

COc1ccc(NC(=S)c2ccc([N+](=O)[O-])o2)cc1
GI50 (EKVX): 2.92 µM (inactive)
GI50 (LOX IMVI): 1.12 µM (inactive)
GI50 (CCRF-CEM): 2.14 µM (inactive)
GI50 (RPMI-8226): 1.19 µM (inactive)
GI50 (MDA-MB-231): 2.48 µM (inactive)
GI50 (UACC-257): 2.7 µM (inactive)
GI50 (OVCAR-4): 1.55 µM (inactive)
GI50 (CAKI-1): 3.44 µM (inactive)
GI50 (SNB-75): 3.19 µM (inactive)
GI50 (OVCAR-5): 3.02 µM (inactive)
GI50 (A498): 15.6 µM (inactive)
GI50 (IGROV-1): 1.82 µM (inactive)
GI50 (NCI-H226): 0.82 µM (active)
GI50 (ACHN): 2.01 µM (inactive)
GI50 (786-0): 1.97 µM (inactive)
GI50 (NCI-H460): 2.18 µM (inactive)
GI50 (RXF 393): 1.99 µM (inactive)
GI50 (SK-MEL-5): 0.65 µM (active)
GI50 (M14): 2.88 µM (inactive)
GI50 (Malme-3M): 2.37 µM (inactive)
GI50 (HCT-116): 1.52 µM (inactive)
GI50 (COLO 205): 0.386 µM (active)
GI50 (SR): 0.927 µM (active)
GI50 (PC-3): 1.32 µM (inactive)
GI50 (UACC-62): 1.77 µM (inactive)
GI50 (T47D): 3.01 µM (inactive)
GI50 (SK-MEL-28): 3.22 µM (inactive)
GI50 (SW-620): 0.918 µM (active)
GI50 (SF-268): 2.04 µM (inactive)
GI50 (HOP-92): 7.8 µM (inactive)
GI50 (MDA-MB-435): 2.06 µM (inactive)
GI50 (MDA-N): 2.29 µM (inactive)
GI50 (NCI/ADR-RES): 0.678 µM (active)
GI50 (SN12C): 2.13 µM (inactive)
GI50 (HCC 2998): 1.62 µM (inactive)
GI50 (BT-549): 1.85 µM (inactive)
GI50 (TK-10): 3.07 µM (inactive)
GI50 (HOP-62): 2.82 µM (inactive)
GI50 (UO-31): 2.03 µM (inactive)
GI50 (MOLT-4): 3.22 µM (inactive)
GI50 (SK-MEL-2): 1.69 µM (inactive)
GI50 (SK-OV-3): 12.3 µM (inactive)
GI50 (NCI-H522): 1.29 µM (inactive)
GI50 (HT-29): 1.26 µM (inactive)
GI50 (SF-295): 3.6 µM (inactive)
GI50 (A549): 3.18 µM (inactive)
GI50 (SNB-19): 2.72 µM (inactive)
GI50 (U-251): 0.885 µM (active)
GI50 (OVCAR-8): 1.28 µM (inactive)
GI50 (Hs-578T): 2.33 µM (inactive)
GI50 (HL-60): 1.99 µM (inactive)
GI50 (K562): 2.07 µM (inactive)
GI50 (HCT-15): 0.895 µM
GI50 (NCI-H23): 1.6 µM (inactive)
GI50 (OVCAR-3): 1.19 µM (inactive)
GI50 (MCF7): 1.8 µM (inactive)
GI50 (DU-145): 3.17 µM (inactive)
GI50 (KM12): 1.6 µM (inactive)
GI50 (SF-539): 0.178 µM (active)

O=C(O)c1cc(/N=C/c2ccccc2O)cc(C(=O)O)c1
GI50 (EKVX): > 100 µM (inactive)
GI50 (LOX IMVI): > 100 µM (inactive)
GI50 (CCRF-CEM): > 100 µM (inactive)
GI50 (RPMI-8226): > 100 µM (inactive)
GI50 (MDA-MB-231): > 100 µM (inactive)
GI50 (UACC-257): > 100 µM (inactive)
GI50 (OVCAR-4): > 100 µM (inactive)
GI50 (CAKI-1): > 100 µM (inactive)
GI50 (SNB-75): > 100 µM (inactive)
GI50 (OVCAR-5): > 100 µM (inactive)
GI50 (A498): > 100 µM (inactive)
GI50 (IGROV-1): > 100 µM (inactive)
GI50 (NCI-H226): > 100 µM (inactive)
GI50 (ACHN): > 100 µM (inactive)
GI50 (786-0): > 100 µM (inactive)
GI50 (NCI-H460): > 100 µM (inactive)
GI50 (RXF 393): > 100 µM (inactive)
GI50 (SK-MEL-5): > 100 µM (inactive)
GI50 (M14): > 100 µM (inactive)
GI50 (Malme-3M): > 100 µM (inactive)
GI50 (HCT-116): > 100 µM (inactive)
GI50 (COLO 205): > 100 µM (inactive)
GI50 (SR): > 100 µM (inactive)
GI50 (PC-3): > 100 µM (inactive)
GI50 (UACC-62): > 100 µM (inactive)
GI50 (T47D): > 100 µM (inactive)
GI50 (SK-MEL-28): > 100 µM (inactive)
GI50 (SW-620): > 100 µM (inactive)
GI50 (SF-268): > 100 µM (inactive)
GI50 (HOP-92): > 100 µM (inactive)
GI50 (MDA-MB-435): > 100 µM (inactive)
GI50 (MDA-N): > 100 µM (inactive)
GI50 (NCI/ADR-RES): > 100 µM (inactive)
GI50 (SN12C): > 100 µM (inactive)
GI50 (HCC 2998): > 100 µM (inactive)
GI50 (BT-549): > 100 µM (inactive)
GI50 (TK-10): > 100 µM (inactive)
GI50 (HOP-62): > 100 µM (inactive)
GI50 (UO-31): > 100 µM (inactive)
GI50 (MOLT-4): 86.9 µM (inactive)
GI50 (SK-MEL-2): > 100 µM (inactive)
GI50 (SK-OV-3): > 100 µM (inactive)
GI50 (NCI-H522): > 100 µM (inactive)
GI50 (HT-29): > 100 µM (inactive)
GI50 (SF-295): > 100 µM (inactive)
GI50 (A549): > 100 µM (inactive)
GI50 (SNB-19): > 100 µM (inactive)
GI50 (U-251): > 100 µM (inactive)
GI50 (OVCAR-8): > 100 µM (inactive)
GI50 (Hs-578T): > 100 µM (inactive)
GI50 (HL-60): > 100 µM (inactive)
GI50 (K562): > 100 µM (inactive)
GI50 (HCT-15): > 100 µM
GI50 (NCI-H23): > 100 µM (inactive)
GI50 (OVCAR-3): 15.3 µM (inactive)
GI50 (MCF7): > 100 µM (inactive)
GI50 (DU-145): > 100 µM (inactive)
GI50 (KM12): > 100 µM (inactive)
GI50 (SF-539): > 100 µM (inactive)
